Assay results reported in US9815851B2, “Pyrrolo carboxamides as modulators of orphan nuclear receptor RAR-related orphan receptor-gamma (RORγ, NR1F3) activity and for the treatment of chronic inflammatory and autoimmune diseases” (PHENEX PHARMACEUTICALS AG, priority 2011, dated 2017).
Where two headings read alike, the source gives them in different places.

Columns and labels:
[1] = biological target: T1, RORγ ligand binding domain (LBD) (Homo sapiens, UniProt P51449); assay: TR-FRET Activity Assay (ligand sensing, RORγ-LBD / coactivator peptide interaction, LANCE); assay type: biochemical
T1 construct: made in house; host or cells: E. coli BL-21 (BL3), vector pDEST15
T1 sequence (P51449 269-508 limits assumed): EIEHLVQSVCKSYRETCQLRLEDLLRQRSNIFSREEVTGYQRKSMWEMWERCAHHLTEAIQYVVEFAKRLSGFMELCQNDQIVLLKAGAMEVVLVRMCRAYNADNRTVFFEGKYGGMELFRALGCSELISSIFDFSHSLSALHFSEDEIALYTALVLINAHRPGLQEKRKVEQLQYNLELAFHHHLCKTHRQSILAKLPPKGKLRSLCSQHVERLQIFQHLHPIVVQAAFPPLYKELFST

RORγ = biological target: T2, RORγ (UniProt P51449); assay: RORγ Gal4 Reporter Gene Assay in 293T cells (firefly and renilla luciferase); assay type: cell-based, human
T2 sequence (P51449 1-518): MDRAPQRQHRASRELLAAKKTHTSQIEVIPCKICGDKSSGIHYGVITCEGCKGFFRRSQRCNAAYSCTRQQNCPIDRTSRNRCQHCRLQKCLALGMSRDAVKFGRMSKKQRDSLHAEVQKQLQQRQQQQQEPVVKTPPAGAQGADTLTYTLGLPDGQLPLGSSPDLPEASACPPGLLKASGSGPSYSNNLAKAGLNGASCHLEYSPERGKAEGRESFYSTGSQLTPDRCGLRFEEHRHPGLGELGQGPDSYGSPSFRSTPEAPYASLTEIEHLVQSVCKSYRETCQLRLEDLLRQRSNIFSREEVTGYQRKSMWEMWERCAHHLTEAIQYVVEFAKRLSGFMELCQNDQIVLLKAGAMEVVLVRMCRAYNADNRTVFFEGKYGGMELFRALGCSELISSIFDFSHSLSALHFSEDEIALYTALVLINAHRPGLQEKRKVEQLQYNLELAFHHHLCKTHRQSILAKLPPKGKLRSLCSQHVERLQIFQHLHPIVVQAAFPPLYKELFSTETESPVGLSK

[2] = first value of the cell FRET/FF/REN, TR-FRET activity assay, read-out: pIC50 (FRET) (converted)
[3] = second value of the cell, Gal4 reporter gene assay in 293T cells, firefly luciferase
[4] = third value of the cell, Gal4 reporter gene assay in 293T cells, renilla normalised luciferase

| Compound | IC50 [1, 2] [µM] | pIC50 (FF) (RORγ; [3]) | pIC50 (REN) (RORγ; [4]) | IC50 [1] [µM] | pIC50 (FF) (RORγ) | pIC50 (REN) (RORγ) |
| --- | --- | --- | --- | --- | --- | --- |
| Cc1c(C(=O)NCC(C)(C)C(=O)O)cc(-c2ccc(S(=O)(=O)NC(C)(C)C)c(C(F)(F)F)c2)n1CC1CCCCC1 [17/200] | 0.501 | 6.9 | 6.9 |  |  |  |
| Cc1c(C(=O)NCC(C)(C)O)cc(-c2cc(C(C)(C)C)c3c(c2)C2(CCO3)CC2)n1CC1CCCCC1 [1/39] |  |  |  | 0.316 | 6.5/6.9/7.0 | 6.5/6.9/7.0 |
| Cc1c(C(=O)NC2COC2)cc(-c2cc(C(=O)N(C)C(C)(C)C)nc(C(C)(C)C)c2)n1CC1CCCCC1 [6/1] | 2 | 6.7 | 6.7 |  |  |  |
| Cc1c(C(=O)NCCCCCN2CCOCC2)cc(-c2cc(C(C)(C)C)cc(C(C)(C)C)c2)n1CC1CCCCC1 [1/75] |  |  |  | 4.9 | 5.31/<4.7<4.7 | 5.31/<4.7<4.7 |
| Cc1c(C(=O)NC2CCOCC2)cc(-c2ccc(CN3CCOCC3(C)C)c(C(F)(F)F)c2)n1CC1CCCCC1 [Example 34, 1-(Cyclohexylmethyl)-5-(4-((3,3-dimethylmorpholino)methyl)-3-(trifluoromethyl)phenyl)-2-methyl-N-(tetrahydro-2H-pyran-4-yl)-1H-pyrrole-3-carboxamide] | 0.398 | 6.8 | 7.1 |  |  |  |
| Cc1c(C(=O)NC2COC2)cc(C2=NN(C(=O)C3CCCCC3)C3(CCCCC3)C2)n1CC1CCCCC1 [24/2] | 6.31 | < 4.7 | < 4.7 |  |  |  |
| Cc1cc(S(=O)(=O)NC(C)(C)C)c(C(F)(F)F)cc1-c1cc(C(=O)NC2CCOCC2)c(C)n1CC1CCCCC1 [17/233] |  |  |  | 1.58 | 5.8/6.5/6.5 | 5.8/6.5/6.5 |
| Cc1c(C(=O)NC2CCOCC2)cc(-c2ccc(S(=O)(=O)NC(C)(C)C)c(C(C)(C)C)c2)n1CC1CCCCC1 [1/131] |  |  |  | 0.501 | 6.3/7.8/7.8 | 6.3/7.8/7.8 |
| Cc1c(C(=O)NC2(C#N)CCOCC2)cc(-c2ccc(S(=O)(=O)NC(C)(C)C)c(C(C)(C)C)c2)n1CC1CCCCC1 [17/208] |  |  |  | 0.398 | 6.4/6.6/6.6 | 6.4/6.6/6.6 |
| CC(C)(C)NS(=O)(=O)c1ccc(-c2cc(C(=O)NCCC(C)(C)C(=O)O)c(C(N)=O)n2CC2CCCCC2)cc1C(F)(F)F [17/169] | 0.794 | 6.7 | 6.7 |  |  |  |
| Cc1c(C(=O)NCC(C)(C)C(=O)NCCC(=O)O)cc(-c2cc(C(C)(C)C)c3c(c2)C2(CCO3)CC2)n1CC1CCCCC1 [11/3] | 1 | 6.5 | 6.5 |  |  |  |
| CCC(C)(C)NS(=O)(=O)c1ccc(-c2cc(C(=O)NC3CCOCC3)c(C)n2CC2CCCC2)cc1C(F)(F)F [17/216] | 0.2 | 7.8 | 7.8 |  |  |  |
| Cc1c(C(=O)NC2COC2)cc(-c2cc(C(C)(C)C)cc(C(C)(C)CF)c2)n1CC1CCCCC1 [17/42] |  |  |  | 2 | 5.7/7.5/7.6 | 5.7/7.5/7.6 |
| Cc1c(C(=O)NCC(C)(C)C(N)=O)cc(-c2cc(C(C)(C)C)c3c(c2)C2(CCO3)CC2)n1CC1CCCCC1 [1/98] | 0.631 | 7.3 | 7.3 |  |  |  |
| Cc1c(C(=O)NCC(C)(C)C(N)=O)cc(-c2cc(C(C)(C)C)cc(C3(C)CC3)c2)n1CC1CCCCC1 [1/85] | 0.316 | 7.7 | 7.7 |  |  |  |
| Cc1c(C(=O)N[C@H]2C[C@H](C(=O)O)C2)cc(-c2ccc(S(=O)(=O)NC(C)(C)C)c3c(F)cccc23)n1CC1CCCCC1 [17/364] | 1 | 6.9 | 7.0 |  |  |  |
| Cc1c(C(=O)NCC(C)(C)c2nn[nH]n2)cc(-c2cc(C(C)(C)C)cc(C3(C)CC3)c2)n1CC1CCCCC1 [17/77] | 0.794 | 8.0 | 8.1 |  |  |  |

| Compound | IC50 [1, 2] [µM] | pIC50 (FF) (RORγ; [3]) | pIC50 (REN) (RORγ; [4]) | IC50 [1] [µM] | pIC50 (FF) (RORγ) | pIC50 (REN) (RORγ) |
| --- | --- | --- | --- | --- | --- | --- |
| Cc1c(C(=O)NCC2CCS(=O)(=O)CC2)cc(-c2cc(C(C)(C)O)cc(C3(C)CC3)c2)n1CC1CCCCC1 [17/320] |  |  |  | 1.58 | 5.8/7.3/7.3 | 5.8/7.3/7.3 |
| Cc1c(C(N)=O)cc(-c2cc(C(C)(C)C)c3c(c2)C2(CCO3)CC2)n1CC1CCCCC1 [1/105] |  |  |  | 0.251 | 6.6/6.5/6.5 | 6.6/6.5/6.5 |
| CCN(C(C)(C)C)S(=O)(=O)c1ccc(-c2cc(C(=O)NC3CCOCC3)c(C)n2CC2CCCCC2)cc1C(F)F [17/125] |  |  |  | 0.0794 | 7.1/6.4/6/ | 7.1/6.4/6/ |
| Cc1c(C(=O)NC2CCOCC2)cc(-c2ccc(S(=O)(=O)NC(C)(C)CO)c(C(F)(F)F)c2)n1CC1CCCCC1 [17/107] | 1 | 6.9 | 6.9 |  |  |  |
| Cc1c(C(=O)NC2CCOCC2)cc(-c2cc(F)c(S(=O)(=O)NC(C)(C)C)c(C(F)(F)F)c2)n1CC1CCCCC1 [17/229] | 0.631 | 7.2 | 7.3 |  |  |  |
| Cc1c(C(=O)N2CC(O)C2)cc(-c2cc(C(C)(C)C)cc(C(C)(C)C)c2)n1CC1CCCCC1 [1/7] | 0.501 | 6.8 | 6.8 |  |  |  |
| Cc1c(C(=O)NC2CCOCC2)cc(-c2ccc(C(=O)NCC(F)(F)F)c(C(C)(C)C)c2)n1CC1CCCCC1 [6/2] | 3.16 | 6.5 | 6.4 |  |  |  |
| Cc1c(C(=O)NCC(C)(C)O)cc(-c2cc(C(=O)NC(C)(C)C)nc(C3(C)CC3)n2)n1CC1CCCCC1 [17/373] | 5.01 | < 4.7 | < 4.7 |  |  |  |
| Cc1c(C(=O)N[C@@H]2CCOC2)cc(-c2cc(C(C)(C)C)c3c(c2)C2(CCO3)CC2)n1CC1CCCCC1 [1/96] | 0.2 | 6.7 | 6.8 |  |  |  |
| Cc1c(C(=O)NC2CCOCC2)cc(-c2ccc(NS(=O)(=O)C(C)(C)C)c(C(F)(F)F)c2)n1CC1CCCCC1 [17/247] | 1.26 | 6.9 | 7.0 |  |  |  |
| CC(C)(C)NS(=O)(=O)c1ccc(-c2cc(C(=O)N[C@H]3C[C@H](C(=O)O)C3)c(Cl)n2CC2CCCCC2)c2ccccc12 [22/2] | 0.398 | 8.1 | 8.0 |  |  |  |
| Cc1c(C(=O)N[C@H]2C[C@H](C(=O)O)C2)cc(-c2cc(C(C)(C)O)cc(C(F)(F)F)c2)n1CC1CCCCC1 [17/307] | 3.16 | 6.2 | 6.0 |  |  |  |
| Cc1c(C(=O)NCC2(C)COC2)cc(-c2ccc(S(=O)(=O)NC(C)(C)C)c(C(C)(C)C)c2)n1CC1CCCCC1 [1/127] |  |  |  | 0.501 | 6.3/7.5/7.4 | 6.3/7.5/7.4 |
| Cc1c(C(=O)N[C@H]2C[C@H](C(=O)O)C2)cc(-c2cc(C(C)(C)C)cc(C3(C)CC3)c2)n1CC1CCCCC1 [17/326] | 1 | 7.8 | 7.9 |  |  |  |
| COCCNC(=O)c1cc(-c2cc(C(C)(C)C)cc(C(C)(C)C)c2)n(CC2CCCCC2)c1C [1/64] | 0.316 | 6.5/6.5/6.5 | 6.5/6.5/6.5 |  |  |  |
| Cc1c(C(=O)N(C)C2CCOCC2)cc(-c2ccc(S(=O)(=O)NC(C)(C)C)c(C(C)(C)C)c2)n1CC1CCCCC1 [17/95] | 0.631 | 7.8 | 7.7 |  |  |  |
| Cc1c(C(=O)NCC(C)(C)O)cc(-c2cc(C(C)(C)C)nc(C3(C)CC3)n2)n1CC1CCCCC1 [17/356] | 0.398 | 6.7 | 6.7 |  |  |  |
